Source: ChEMBL document CHEMBL5291721, “A preclinical secondary pharmacology resource illuminates target-adverse drug reaction associations of marketed drugs” (Nat Commun, 2023)
Each block holds one compound with its values, some of them ahead of it.

Experiments:
[1] = biological target: D(1B) dopamine receptor (Homo sapiens, UniProt P21918)
[2] = biological target: T1, Type-2 angiotensin II receptor (Homo sapiens, UniProt P50052); assay type: functional
T1 sequence (P50052 whole entry): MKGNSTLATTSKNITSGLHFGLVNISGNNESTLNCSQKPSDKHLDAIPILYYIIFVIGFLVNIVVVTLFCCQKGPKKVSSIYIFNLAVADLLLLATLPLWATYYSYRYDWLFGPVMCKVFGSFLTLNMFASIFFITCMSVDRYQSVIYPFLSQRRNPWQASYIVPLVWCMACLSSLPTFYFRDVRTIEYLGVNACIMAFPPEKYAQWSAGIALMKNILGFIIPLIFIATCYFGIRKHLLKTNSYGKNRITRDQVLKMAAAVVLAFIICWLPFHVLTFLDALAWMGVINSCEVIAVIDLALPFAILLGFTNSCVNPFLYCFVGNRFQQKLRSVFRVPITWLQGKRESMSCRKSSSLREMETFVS

[3] = biological target: T2, Retinoic acid receptor beta (Homo sapiens, UniProt P10826); assay type: functional, cell-based
T2 sequence (P10826 whole entry): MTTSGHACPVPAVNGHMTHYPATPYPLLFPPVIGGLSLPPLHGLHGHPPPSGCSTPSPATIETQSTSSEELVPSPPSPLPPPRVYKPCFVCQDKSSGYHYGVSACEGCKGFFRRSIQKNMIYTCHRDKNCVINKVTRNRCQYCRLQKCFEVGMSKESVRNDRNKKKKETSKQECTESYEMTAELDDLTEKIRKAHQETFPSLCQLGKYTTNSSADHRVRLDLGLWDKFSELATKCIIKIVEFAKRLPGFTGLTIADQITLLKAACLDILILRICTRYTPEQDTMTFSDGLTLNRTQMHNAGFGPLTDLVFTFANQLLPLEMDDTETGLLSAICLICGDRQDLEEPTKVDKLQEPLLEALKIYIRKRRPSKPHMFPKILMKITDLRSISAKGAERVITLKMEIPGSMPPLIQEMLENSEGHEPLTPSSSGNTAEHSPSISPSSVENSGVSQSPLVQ

[4] = biological target: T3, Bile acid receptor (Homo sapiens, UniProt Q96RI1); assay type: functional
T3 sequence (Q96RI1 whole entry): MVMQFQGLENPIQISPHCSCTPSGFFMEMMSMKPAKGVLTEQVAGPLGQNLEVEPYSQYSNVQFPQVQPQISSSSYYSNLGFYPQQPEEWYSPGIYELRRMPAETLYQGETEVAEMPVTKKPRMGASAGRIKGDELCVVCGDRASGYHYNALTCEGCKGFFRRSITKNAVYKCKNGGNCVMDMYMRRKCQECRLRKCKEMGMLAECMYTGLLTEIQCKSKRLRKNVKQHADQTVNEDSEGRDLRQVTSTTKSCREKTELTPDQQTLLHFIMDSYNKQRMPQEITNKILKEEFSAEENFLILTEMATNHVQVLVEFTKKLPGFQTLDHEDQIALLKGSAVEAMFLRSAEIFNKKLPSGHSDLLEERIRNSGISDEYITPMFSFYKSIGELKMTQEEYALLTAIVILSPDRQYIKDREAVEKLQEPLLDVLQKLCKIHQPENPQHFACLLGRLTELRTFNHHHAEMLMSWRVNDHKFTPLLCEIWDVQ

[5] = biological target: T4, Retinoic acid receptor alpha (Homo sapiens, UniProt P10276); assay type: functional, cell-based
T4 sequence (P10276 whole entry): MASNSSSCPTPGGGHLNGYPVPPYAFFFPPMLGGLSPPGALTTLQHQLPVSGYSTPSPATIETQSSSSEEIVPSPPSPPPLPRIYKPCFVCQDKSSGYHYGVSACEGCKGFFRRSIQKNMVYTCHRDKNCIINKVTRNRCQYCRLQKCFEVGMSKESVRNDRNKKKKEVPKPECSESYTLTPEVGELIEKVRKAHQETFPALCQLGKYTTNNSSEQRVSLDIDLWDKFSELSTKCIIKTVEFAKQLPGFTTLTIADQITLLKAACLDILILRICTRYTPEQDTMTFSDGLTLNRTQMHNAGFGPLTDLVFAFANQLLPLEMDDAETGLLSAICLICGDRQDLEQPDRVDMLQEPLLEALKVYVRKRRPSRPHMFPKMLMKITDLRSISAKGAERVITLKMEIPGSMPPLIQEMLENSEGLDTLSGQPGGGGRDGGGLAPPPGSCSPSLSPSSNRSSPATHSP

[6] = biological target: T3, Bile acid receptor; assay type: functional; remark: listed apart in the source
[7] = biological target: T2, Retinoic acid receptor beta; assay type: functional, cell-based; remark: listed apart in the source
[8] = biological target: T3, Bile acid receptor; assay type: functional; remark: listed apart in the source
[9] = biological target: T5, Oxysterols receptor LXR-alpha (Homo sapiens, UniProt Q13133); assay type: functional
T5 sequence (Q13133 whole entry): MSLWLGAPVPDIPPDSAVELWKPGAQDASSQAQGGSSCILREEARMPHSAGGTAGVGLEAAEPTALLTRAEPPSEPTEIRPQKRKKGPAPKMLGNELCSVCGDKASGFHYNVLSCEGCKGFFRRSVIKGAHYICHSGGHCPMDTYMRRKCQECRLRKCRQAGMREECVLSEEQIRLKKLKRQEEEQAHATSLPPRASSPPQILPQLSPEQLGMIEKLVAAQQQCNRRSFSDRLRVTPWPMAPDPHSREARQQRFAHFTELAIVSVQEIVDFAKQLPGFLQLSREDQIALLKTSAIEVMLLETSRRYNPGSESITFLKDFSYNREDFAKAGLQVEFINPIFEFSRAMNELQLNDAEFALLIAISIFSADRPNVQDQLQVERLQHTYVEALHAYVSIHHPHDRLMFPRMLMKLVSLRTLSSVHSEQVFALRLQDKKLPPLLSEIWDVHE

[10] = biological target: T6, Retinoic acid receptor gamma (Homo sapiens, UniProt P13631); assay type: functional, cell-based
T6 sequence (P13631 whole entry): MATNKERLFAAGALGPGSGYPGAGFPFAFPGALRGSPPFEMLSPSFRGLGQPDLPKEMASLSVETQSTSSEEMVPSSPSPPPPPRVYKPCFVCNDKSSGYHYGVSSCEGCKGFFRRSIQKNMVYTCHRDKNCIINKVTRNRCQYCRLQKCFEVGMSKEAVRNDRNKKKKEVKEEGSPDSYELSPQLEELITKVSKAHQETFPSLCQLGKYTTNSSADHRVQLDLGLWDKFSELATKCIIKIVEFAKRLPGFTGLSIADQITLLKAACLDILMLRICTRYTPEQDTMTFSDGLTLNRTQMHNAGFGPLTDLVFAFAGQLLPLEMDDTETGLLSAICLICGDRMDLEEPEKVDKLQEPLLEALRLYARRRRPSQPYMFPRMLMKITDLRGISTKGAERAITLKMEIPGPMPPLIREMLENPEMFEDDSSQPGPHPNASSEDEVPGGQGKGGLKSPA
Further: assay procedure not described here.

D(1B) dopamine receptor, sequence (P21918 whole entry): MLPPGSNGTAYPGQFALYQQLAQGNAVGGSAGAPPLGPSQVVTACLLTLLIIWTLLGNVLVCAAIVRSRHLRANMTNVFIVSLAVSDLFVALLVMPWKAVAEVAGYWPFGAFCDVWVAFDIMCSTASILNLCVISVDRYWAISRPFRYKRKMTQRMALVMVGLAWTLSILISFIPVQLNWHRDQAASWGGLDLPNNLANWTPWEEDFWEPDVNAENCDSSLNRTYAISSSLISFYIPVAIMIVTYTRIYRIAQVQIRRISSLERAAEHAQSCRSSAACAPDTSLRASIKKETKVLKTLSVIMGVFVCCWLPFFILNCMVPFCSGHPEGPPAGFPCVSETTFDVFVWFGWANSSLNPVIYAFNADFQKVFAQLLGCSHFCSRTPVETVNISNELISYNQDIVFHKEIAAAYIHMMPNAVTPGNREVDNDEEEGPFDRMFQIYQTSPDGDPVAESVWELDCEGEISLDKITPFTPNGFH

SMILES: CCOC(=O)[C@H](CCc1ccccc1)N[C@@H](C)C(=O)N1Cc2ccccc2C[C@H]1C(=O)O
- AC50 [1]: > 10 µM

- AC50 [2]: > 100 µM
SMILES: C[C@H](CS)C(=O)N1CCC[C@H]1C(=O)O [CAPTOPRIL]

- AC50 [3]: > 30 µM
- AC50 [4]: 16 µM
- AC50 [5]: > 30 µM
- AC50 [6]: > 30 µM
- AC50 [7]: > 30 µM
- AC50 [8]: > 30 µM
- AC50 [9]: > 30 µM
- AC50 [10]: > 30 µM
SMILES: CC(C)/N=c1\cc2n(-c3ccc(Cl)cc3)c3ccccc3nc-2cc1Nc1ccc(Cl)cc1 [CLOFAZIMINE]
